Among the data in the NIST ThermoML archive (doi:10.1021/je300083m) are mass density values, retold here.

The structures appear in SMILES notation. Numbers after ± are expanded uncertainties.

The series in a line: mn = molality of the nth substance listed, in mol/kg. Particulars: 101 kPa, Liquid, m1 = 0.512.

Consider `O=[N+]([O-])[O-].[K+]` [potassium nitrate] + O, for which the mass density (commonly mass per unit of volume) (298.15 K) is listed as 1027.98 ± 0.22 kg/m3; the mass density (303.15 K) stood at 1026.22 ± 0.22 kg/m3; the mass density (308.15 K) was 1024.1 ± 0.21 kg/m3; the mass density (313.15 K) stood at 1022.05 ± 0.21 kg/m3; the mass density (318.15 K) is on record as 1020.2 ± 0.21 kg/m3; the mass density (323.15 K) is on record as 1018.2 ± 0.2 kg/m3.
For `O=S(=O)([O-])[O-].[K+].[K+]` [potassium sulfate] + O, the mass density is recorded as 1063.81 ± 0.3 kg/m3 (298.15 K); 1062.02 ± 0.29 kg/m3 (303.15 K); 1060.06 ± 0.29 kg/m3 (308.15 K); 1057.74 ± 0.29 kg/m3 (313.15 K); 1055.14 ± 0.28 kg/m3 (318.15 K); 1052.95 ± 0.28 kg/m3 (323.15 K).
